# Experimental data from patent US7094899B2, “Vitreous form of known bradykinin antagonist” (Astellas Pharma Inc., priority 1998, dated 2006).
# Key:
# [1] = Stability test of the vitreous form milled mechanically; type: physicochemical
# [2] = Solubility test (JP XIII dissolution test, paddle method); type: physicochemical; details: 900 ml distilled water, paddle 50 rpm; compared with crystal types A, B, C and mixture A+C of FR173657 hydrate (FIG. 6)
# Description: A solubility test was performed in conformity with the Japanese Pharmacopoeia(JP) XIII dissolution test, paddle method. As the test solution, 900 ml of distilled water was used. The paddle speed was set to 50 rpm. The vitreous form of FR173657 ([…]) was added to the test solution and 10 ml aliquots of the test solution were taken as samples in each measurement. Each sample was filtered through a 0.45 μm filter and analyzed by high-performance liquid chromatography.
# As a control, crystal type A, crystal type B, crystal type C and a mixture of crystal types A and C of FR173657 hydrate were used.
# [3] = background art statement; cited from earlier work
# [4] = 25° C. Relative humidity: 60%, 3 Months
# [5] = 30° C. Relative humidity: 75%, 3 Months
# [6] = 40° C. Relative humidity: 75%, 3 Months
smiles,measurement,setting,value
"CC(=O)Nc1ccc(/C=C/C(=O)NCC(=O)N(C)c2ccc(Cl)c(COc3cccc4ccc(C)nc34)c2Cl)cn1 [vitreous form of FR173657, 8-[3-[N-[(E)-3-(6-acetamidopyridin-3-yl)acryloylglycyl]-N-methylamino]-2,6-dichlorobenzyloxy]-2-methylquinoline]",Appearance,[1]; [4],Pale
same,Form DSC,[1]; [4],Vitreous
same,Form Powder X-ray,[1]; [4],Vitreous
same,Residual (%),[1]; [4],102.1%
same,Appearance,[1]; [5],Pale
same,Form DSC,[1]; [5],Vitreous
same,Form Powder X-ray,[1]; [5],Vitreous
same,Residual (%),[1]; [5],102.1%
same,Appearance,[1]; [6],Pale
same,Form DSC,[1]; [6],Vitreous
same,Form Powder X-ray,[1]; [6],Vitreous
same,Residual (%),[1]; [6],101.2%
same,Appearance,"[1]; 40° C., 3 Months",Pale
same,Form DSC,"[1]; 40° C., 3 Months",Vitreous
same,Form Powder X-ray,"[1]; 40° C., 3 Months",Vitreous
same,Residual (%),"[1]; 40° C., 3 Months",100.8%
same,Appearance,"[1]; 50° C., 3 Months",Pale
same,Form DSC,"[1]; 50° C., 3 Months",Vitreous
same,Form Powder X-ray,"[1]; 50° C., 3 Months",Vitreous
same,Residual (%),"[1]; 50° C., 3 Months",101.0%
same,Appearance,[1]; Initial,Pale
same,Form DSC,[1]; Initial,Vitreous
same,Form Powder X-ray,[1]; Initial,Vitreous
same,Residual (%),[1]; Initial,100.0%
same,Stability (crystallization / decomposition),"[1]; under heat, in moisture, through physical treatment, long-term storage",neither crystallizes nor decomposes at all
same,Solubility,[2],higher solubility
"CC(=O)Nc1ccc(/C=C/C(=O)NCC(=O)N(C)c2ccc(Cl)c(COc3cccc4ccc(C)nc34)c2Cl)cn1 [amorphous form, 8-[3-[N-[(E)-3-(6-acetamidopyridin-3-yl)acryloylglycyl]-N-methylamino]-2,6-dichlorobenzyloxy]-2-methylquinoline]",Solid stability,[3],poor
